Assays:
[1] = tested on: M. tuberculosis multi-drug-resistant clinical strains; test: microbe, parasite or virus in culture; format: cell-based; conditions: for MIC: Mycobacterium tuberculosis
[2] = tested on: M. tuberculosis H37Rv-ΔcydAB; set-up: species or system mouse (Balb/cBy); conditions: mouse, in vivo

## CCc1nc2ccc(Cl)cn2c1C(=O)NCc1ccc(C2CC3(C2)CN(S(=O)(=O)C(F)(F)F)C3)cc1 [JNJ-2901]
[1]; all 18 clinical strains
  MIC: < 1 nM
[1]; all 18 clinical strains, Middlebrook 7H9 medium
  MIC: ≤ 0.5 ng/mL
[1]; strain 661706043123, resistant to INH, PAS
  MIC: ≤ 0.5 ng/mL
[1]; strain 661710016056, resistant to INH, S, PAS
  MIC: ≤ 0.5 ng/mL
[1]; strain 661904036200, resistant to INH, PAS
  MIC: ≤ 0.5 ng/mL
[1]; strain 661906047849, resistant to INH, RIF, S, PZA, ETH, PAS, EMB, CYC
  MIC: ≤ 0.5 ng/mL
[1]; strain 661907010966, resistant to INH, RIF, S, PAS, EMB, PZA, CYC, AMK, KAN, CAP, ETH
  MIC: ≤ 0.5 ng/mL
[1]; strain 661908012994, resistant to INH, RIF, S, PZA, PAS, ETH
  MIC: ≤ 0.5 ng/mL
[1]; strain 661911031781, resistant to INH, RIF, S, PAS, CYC, ETH, KAN
  MIC: ≤ 0.5 ng/mL
[1]; strain 661911038007, resistant to INH, RIF, S, PAS
  MIC: ≤ 0.5 ng/mL
[1]; strain 662001006107, resistant to INH, RIF, PZA, S, PAS, CYC, ETH, FQL
  MIC: ≤ 0.5 ng/mL
[1]; strain 662001039167, resistant to INH, RIF, S, PAS, EMB, PZA, CYC, KAN
  MIC: ≤ 0.5 ng/mL
[1]; strain 662001071666, resistant to INH, RIF, S, PAS, PZA, EMB, ETH
  MIC: ≤ 0.5 ng/mL
[1]; strain 662003052840, resistant to INH, EMB, PZA, S, CYC, PAS, ETH
  MIC: ≤ 0.5 ng/mL
[1]; strain 662004032055, resistant to INH, RIF, S, PAS, ETH
  MIC: ≤ 0.5 ng/mL
[1]; strain 662008015398, resistant to INH, RIF, S, PAS, EMB, PZA, ETH
  MIC: ≤ 0.5 ng/mL
[1]; strain 662012006551, resistant to INH, PAS, PZA, ETH (LNZ geno)
  MIC: ≤ 0.5 ng/mL
[1]; strain 662101040833, resistant to INH, RIF, PZA, S, PAS, EMB, ETH, KAN, CAP, AMK, CYC
  MIC: ≤ 0.5 ng/mL
[1]; strain 662105041666, resistant to INH, RIF, S, PZA, EMB, FQL, ETH, CYC, PAS
  MIC: ≤ 0.5 ng/mL
[1]; strain 662108038389, resistant to INH, RIF, S, PAS
  MIC: ≤ 0.5 ng/mL
[1]; clinical multidrug-resistant M. tuberculosis strains
  concentration of growth inhibition (in words): sub-nanomolar
[2]
  reduction in bacterial burden / lung CFU: 4 log

From article PMC11964921 (npj Drug Discovery, 2025)
